Test results taken from patent publication US11730405B2, “Body fluid leakage detection aqueous composition” (MAGLE CHEMOSWED HOLDING AB, priority 2017, dated 2023).
Several values for one entry are separate records, joined by “and”; a condition that tells them apart may be missing. Identical values can stand only once. Like-named read-outs stand apart in the source and are kept apart here.

Legend:
pancreatic target cells = assay: Cytotoxicity cell culture assay (resazurin to resofurin fluorescence photometry); type: cell-based
Protocol: (§1) PAN toxicology was evaluated by analyzing in vivo pharmacokinetics of its degradation products over 48 hours. Additionally, acute local tissue injury caused by the indicator within minutes as well as macroscopic intra-abdominal side effects and local histological of the device over 8 days were assessed. Finally, cytotoxicity of its degradation products on pancreatic target cells was analyzed.
Cytotoxicity by PAN was further evaluated in a cell culture assay. Metabolic activity of viable cells was evaluated by fluorescence photometry of metabolized resofurin from resazurin after incubation with increasing amount of BTB. PAN indicator hydrogels contain BTB at a concentration of almost 0.5 mg/ml. Thus BTB-solutions with concentrations of 0.5 mg/ml, 1 mg/ml, 1.5 mg/ml, and 5.5 mg/ml, respectively were tested. Cytotoxicity is defined as cell viability less than 70%.

[1] = Pharmacokinetics of BTB in drainage fluid and portal venous blood after abdominal application of PAN indicator hydrogel (HPLC-MS); type: in vivo, domestic pigs (Sus Scrofa Domestica); settings: for concentration at 1 day / concentration at 2 day / concentration at 0 min / concentration at 1 min / concentration at 5 min / concentration at 30 min / concentration at 60 min / concentration at 120 min: pig, other: abdominal application at the pancreatic surgery field; for concentration at 5 min: Min 5, mean of animals; for concentration at 30 min: Min 30, mean of animals
Protocol: as §1
For toxicological evaluation of PAN indicator hydrogel pharmacokinetics studies were conducted measuring concentrations of degradation products of the device in body fluid components over time consequently to abdominal application in pancreatic surgery. Blood from portal vein and peritoneal fluid from intraoperative situs or postoperative drainages were sampled. Time points of sampling in relation to indicator application were: 0 min (baseline before indicator application), 1, 5, 30, 60, and 120 min, 1st and 2nd postoperative day. Due to its composition with water and degradable components starch microspheres, only further constituent bromothymol blue (BTB) needed to be evaluated. It should be evaluated if and how much BTB stays in the organism after application at the pancreatic surgery field, gets resorbed to portal venous circulation and passes liver metabolism to reach central venous circulation. Thus, samples of body were collected at the different body compartments over time as described above. Due to expected extremely small BTB-amounts to be measured the very sensitive detection method High Pressure Liquid Chromatography-Mass Spectrometry (HPLC-MS) was used.

[2] = cited from earlier work
[3] = drainage fluid (peritoneal fluid), pig drainage fluid, read-out: Drainage BTB-Concentration, Mean
[4] = portal venous blood, pig portal venous blood, read-out: Portal Venous Blood BTB-Concentration, Mean

concentration at 1 day ([1]; drainage fluid (peritoneal fluid), pig drainage fluid, Day 1, mean of animals, read-out: Drainage BTB-Concentration, Mean): 17.1 ng/mL
concentration at 2 day ([1]; drainage fluid (peritoneal fluid), pig drainage fluid, Day 2, mean of animals, read-out: Drainage BTB-Concentration, Mean): 0 ng/mL
concentration at 0 min ([1]; drainage fluid (peritoneal fluid), pig drainage fluid, Min 0 (baseline before indicator application), mean of animals, read-out: Drainage BTB-Concentration, Mean): 1.9 ng/mL
concentration at 1 min ([1]; drainage fluid (peritoneal fluid), pig drainage fluid, Min 1, mean of animals, read-out: Drainage BTB-Concentration, Mean): 4220 ng/mL
concentration at 5 min [1, 3]: 3170 ng/mL
concentration at 30 min [1, 3]: 1310 ng/mL
concentration at 60 min ([1]; drainage fluid (peritoneal fluid), pig drainage fluid, Min 60, mean of animals, read-out: Drainage BTB-Concentration, Mean): 661 ng/mL
concentration at 120 min ([1]; drainage fluid (peritoneal fluid), pig drainage fluid, Min 120, mean of animals, read-out: Drainage BTB-Concentration, Mean): 408 ng/mL
concentration at 1 day ([1]; portal venous blood, pig portal venous blood, Day 1, mean of animals, read-out: Portal Venous Blood BTB-Concentration, Mean): 0 ng/mL
concentration at 2 day ([1]; portal venous blood, pig portal venous blood, Day 2, mean of animals, read-out: Portal Venous Blood BTB-Concentration, Mean): 0 ng/mL
concentration at 0 min ([1]; portal venous blood, pig portal venous blood, Min 0 (baseline before indicator application), mean of animals, read-out: Portal Venous Blood BTB-Concentration, Mean): 0 ng/mL
concentration at 1 min ([1]; portal venous blood, pig portal venous blood, Min 1, mean of animals, read-out: Portal Venous Blood BTB-Concentration, Mean): 0 ng/mL
concentration at 5 min [1, 4]: 0.51 ng/mL
concentration at 30 min [1, 4]: 0.53 ng/mL
concentration at 60 min ([1]; portal venous blood, pig portal venous blood, Min 60, mean of animals, read-out: Portal Venous Blood BTB-Concentration, Mean): 0 ng/mL
concentration at 120 min ([1]; portal venous blood, pig portal venous blood, Min 120, mean of animals, read-out: Portal Venous Blood BTB-Concentration, Mean): 0 ng/mL
Structure (SMILES): Cc1c(C2(c3cc(C(C)C)c(O)c(Br)c3C)OS(=O)(=O)c3ccccc32)cc(C(C)C)c(O)c1Br [BTB, bromothymol blue]
cytotoxicity (defined as cell viability less than 70%) (pancreatic target cells; 5.5 mg/ml of BTB): slight toxicity
cytotoxicity (defined as cell viability less than 70%) (pancreatic target cells; 0.5-1.5 mg/ml of BTB): No cytotoxicity
Drainage BTB-Concentration ([1]; pig drainage fluid, Day 1 (1st postoperative day), individual animals Tox 1-4): < 20 ng/mL and 32.1 ng/mL and 18.9 ng/mL and 14.4 ng/mL and 2.98 ng/mL
Drainage BTB-Concentration ([1]; pig drainage fluid, Day 2 (2nd postoperative day), individual animals Tox 1-4): no detectable amount and 0 ng/ml
Drainage BTB-Concentration ([1]; pig drainage fluid, Min 0 (baseline before indicator application), individual animals Tox 1-4): 0 ng/ml (3×) and 7.44 ng/ml
Drainage BTB-Concentration ([1]; pig drainage fluid, Min 1 after indicator application, individual animals Tox 1-4): 2060 ng/mL and 9220 ng/mL and 3600 ng/mL and 2010 ng/mL
Drainage BTB-Concentration ([1]; pig drainage fluid, Min 5, individual animals Tox 1-4): 7650 ng/mL and 389 ng/mL and 2560 ng/mL and 2070 ng/mL
Drainage BTB-Concentration ([1]; pig drainage fluid, Min 30, individual animals Tox 1-4): 3280 ng/mL and 10.7 ng/mL and 1220 ng/mL and 712 ng/mL
Drainage BTB-Concentration ([1]; pig drainage fluid, Min 60, individual animals Tox 1-4): 1140 ng/mL and 9.27 ng/mL and 1270 ng/mL and 224 ng/mL
Drainage BTB-Concentration ([1]; pig drainage fluid, Min 120, individual animals Tox 1-4): 619 ng/mL and 263 ng/mL and 631 ng/mL and 121 ng/mL
Portal Venous Blood BTB-Concentration ([1]; pig portal venous blood, Day 1, individual animals Tox 1-4): 0 ng/mL
Portal Venous Blood BTB-Concentration ([1]; pig portal venous blood, Day 2, individual animals Tox 1-4): 0 ng/mL
Portal Venous Blood BTB-Concentration ([1]; pig portal venous blood, Min 0 (baseline before indicator application), individual animals Tox 1-4): 0 ng/mL
Portal Venous Blood BTB-Concentration ([1]; pig portal venous blood, Min 1, individual animals Tox 1-4): 0 ng/mL
Portal Venous Blood BTB-Concentration ([1]; pig portal venous blood, Min 5, individual animals Tox 1-4): 0 ng/ml (3×) and 2.02 ng/ml
Portal Venous Blood BTB-Concentration ([1]; pig portal venous blood, Min 30, individual animals Tox 1-4): 0 ng/ml (3×) and 2.11 ng/ml
Portal Venous Blood BTB-Concentration ([1]; pig portal venous blood, Min 60, individual animals Tox 1-4): 0 ng/mL
Portal Venous Blood BTB-Concentration ([1]; pig portal venous blood, Min 120, individual animals Tox 1-4): 0 ng/mL
concentration at 2 day ([1]; drainage fluid (peritoneal fluid), pig drainage fluid, Day 2 (2nd postoperative day), individual animals Tox 1-4, read-out: Drainage BTB-Concentration): 0 ng/mL
concentration at 1 day ([1]; portal venous blood, pig portal venous blood, Day 1, individual animals Tox 1-4, read-out: Portal Venous Blood BTB-Concentration): 0 ng/mL
concentration at 2 day ([1]; portal venous blood, pig portal venous blood, Day 2, individual animals Tox 1-4, read-out: Portal Venous Blood BTB-Concentration): 0 ng/mL
concentration at 0 min ([1]; portal venous blood, pig portal venous blood, Min 0 (baseline before indicator application), individual animals Tox 1-4, read-out: Portal Venous Blood BTB-Concentration): 0 ng/mL
concentration at 1 min ([1]; portal venous blood, pig portal venous blood, Min 1, individual animals Tox 1-4, read-out: Portal Venous Blood BTB-Concentration): 0 ng/mL
concentration at 60 min ([1]; portal venous blood, pig portal venous blood, Min 60, individual animals Tox 1-4, read-out: Portal Venous Blood BTB-Concentration): 0 ng/mL
concentration at 120 min ([1]; portal venous blood, pig portal venous blood, Min 120, individual animals Tox 1-4, read-out: Portal Venous Blood BTB-Concentration): 0 ng/mL
BTB in portal venous blood ([1]; pigs, 5 and 30 minutes after application, remaining pigs and timepoints no BTB detected): small amounts of BTB were found only in one pig
pKa [2]: 7.0
